Test results: patent publication US20240059698A1 (Accutar Biotechnology Inc., priority 2022, published 2024)
Read-outs that look alike come from different tables or passages of the source.

How the values were obtained:
Assay type in all cases: cell-based
HCC827 cells = experiment: Cell growth inhibition (CellTiter-Glo), HCC827; details: Homo sapiens, 72 h, 3 days
Procedure, shortened: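 Readout was CellTiter-Glo luminescence after 3-day compound treatment at 37° C. Cells were seeded at 5000/well the previous night: HCC827 in RPMI/10% FBS, A431 in DMEM/10% FBS.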

[1] = test system: HCC827-SVD cells (human EGFR exon 20 insertion mutant D770_N771insSVD); experiment: Cell growth inhibition (CellTiter-Glo), HCC827-SVD; details: 72 h, 3 days
Procedure, shortened: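 Growth read by CellTiter-Glo luminescence after 3-day compound exposure at 37 °C. Engineered clonal HCC827 line (native EGFR deleted by CRISPR, mutant EGFR re-expressed) plated at 5000 cells/well in 10% FBS RPMI the night before dosing.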

[2] = test system: HCC827-YVMA cells (human ERBB2 exon20 insertion mutant A775_G776ins YVMA); experiment: Cell growth inhibition (CellTiter-Glo), HCC827-YVMA; details: 72 h, read-out: Cell growth inhibition, GI50 (nM) HCC827-YVMA
Procedure, shortened: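 Growth in RPMI with 10% FBS was measured by CellTiter-Glo luminescence after 3 days at 37 °C with test compounds across a concentration range. The single-clone HCC827 lines carry a lentiviral YVMA (ERBB2) or ASV (EGFR) exon 20 insertion, with endogenous EGFR removed via sgRNA/Cas9.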

A431 cells = experiment: Cell growth inhibition (CellTiter-Glo), A431; details: Homo sapiens, A-431, 72 h, 3 days
Protocol: 2. Cell Growth Inhibition for HCC827, HCC827-SVD, HCC827-ASV, HCC827-YVMA, and A431.
HCC827(ATCC), HCC827-SVD, HCC827-ASV, and HCC827-YVMA cells were seeded in 96-well plates at 5000 cells/well in 90 μL of RPMI growth medium containing 10% FBS and 1% Penicillin Streptomycin. A431 (ATCC) cells were seeded in 96-well plates at 5000 cells/well in 90 μL of DMEM growth medium containing 10% FBS and 1% Penicillin Streptomycin. Cells were incubated at 37° C. overnight and then administered with 10 μL 10× test compounds prepared in the growth medium at various concentrations. After administration of the compounds, cells were incubated at 37° C. for 3 days. Before the CellTiter-Glo assay, the plates were equilibrated at room temperature for approximately 30 minutes. 100 ul of CellTiter-Glo reagent (Promega) was added to each well. The plates were then incubated at room temperature for 10 minutes and luminescence was recorded by the EnSight® multimode plate reader (PerkinElmer). Table 7 listed selected compounds in cellular growth assay.

[3] = HCC827-YVMA cells, 3 days, CellTiter-Glo

GI50 (HCC827 cells) [nM] | GI50 [1] [nM] | GI50 (A431 cells) [nM] | GI50 [2, 3] [nM] | Structure (SMILES) | GI50 [2] [nM]
200 to 1000 | 50 to 200 | > 1000 | 50 to 200 | C=CC(=O)N1CCC(c2n[nH]c3ncnc(Nc4ccc(Oc5ccnc(N6CCO[C@H](C)C6)c5)cc4F)c23)CC1 [Compound 172, (R)-1-(4-(4-((2-fluoro-4-((2-(2-methylmorpholino)pyridin-4-yl)oxy)phenyl)amino)-1H-pyrazolo[3,4-d]pyrimidin-3-yl)piperidin-1-yl)prop-2-en-1-one] | –
> 1000 | 200 to 1000 | > 1000 | 200 to 1000 | C=CC(=O)N1CCC(c2n[nH]c3ncnc(Nc4ccc(Oc5ccnc(NC6CCOCC6)c5)cc4F)c23)CC1 [Compound 174, 1-(4-(4-((2-fluoro-4-((2-((tetrahydro-2H-pyran-4-yl)amino)pyridin-4-yl)oxy)phenyl)amino)-1H-pyrazolo[3,4-d]pyrimidin-3-yl)piperidin-1-yl)prop-2-en-1-one] | –
> 1000 | 200 to 1000 | > 1000 | 200 to 1000 | C=CC(=O)N1CCC(c2n[nH]c3ncnc(Nc4ccc(Oc5ccnc(N6C[C@H](OC)[C@H](OC)C6)c5)cc4F)c23)CC1 [Compound 176, 1-(4-(4-((4-((2-((3S,4R)-3,4-dimethoxypyrrolidin-1-yl)pyridin-4-yl)oxy)-2-fluorophenyl)amino)-1H-pyrazolo[3,4-d]pyrimidin-3-yl)piperidin-1-yl)prop-2-en-1-one] | –
> 1000 | 200 to 1000 | > 1000 | 50 to 200 | C=CC(=O)N1CCC(c2n[nH]c3ncnc(Nc4ccc(Oc5ccnc(N6CC(C)(OC)C6)c5)cc4F)c23)CC1 [Compound 178, 1-(4-(4-((2-fluoro-4-((2-(3-methoxy-3-methylazetidin-1-yl)pyridin-4-yl)oxy)phenyl)amino)-1H-pyrazolo[3,4-d]pyrimidin-3-yl)piperidin-1-yl)prop-2-en-1-one] | –
> 1000 | 200 to 1000 | > 1000 | 200 to 1000 | C=CC(=O)N1CCC(c2n[nH]c3ncnc(Nc4ccc(Oc5ccnc(N6CCC(C#N)C6)c5)cc4F)c23)CC1 (stereo not drawn) [Compound 179, 1-(4-(4-((3-(1-acryloylpiperidin-4-yl)-1H-pyrazolo[3,4-d]pyrimidin-4-yl)amino)-3-fluorophenoxy)pyridin-2-yl)pyrrolidine-3-carbonitrile] | –
> 1000 | 50 to 200 | > 1000 | 50 to 200 | C=CC(=O)N1CCC(c2n[nH]c3ncnc(Nc4ccc(Oc5ccnc(N6CC7(CCOCC7)C6)c5)cc4F)c23)CC1 [Compound 181, 1-(4-(4-((4-((2-(7-oxa-2-azaspiro[3.5]nonan-2-yl)pyridin-4-yl)oxy)-2-fluorophenyl)amino)-1H-pyrazolo[3,4-d]pyrimidin-3-yl)piperidin-1-yl)prop-2-en-1-one] | –
> 1000 | 50 to 200 | > 1000 | 50 to 200 | C=CC(=O)N1CCC(c2n[nH]c3ncnc(Nc4ccc(Oc5ccnc(NC(=O)C(C)C)c5)cc4F)c23)CC1 [Compound 182, N-(4-(4-((3-(1-acryloylpiperidin-4-yl)-1H-pyrazolo[3,4-d]pyrimidin-4-yl)amino)-3-fluorophenoxy)pyridin-2-yl)isobutyramide] | –
200 to 1000 | 200 to 1000 | > 1000 | 200 to 1000 | C=CC(=O)N1CCC(c2n[nH]c3ncnc(Nc4ccc(Oc5ccn(S(=O)(=O)C(C)C)n5)cc4F)c23)CC1 [Compound 183, 1-(4-(4-((2-fluoro-4-((1-(isopropylsulfonyl)-1H-pyrazol-3-yl)oxy)phenyl)amino)-1H-pyrazolo[3,4-d]pyrimidin-3-yl)piperidin-1-yl)prop-2-en-1-one] | –
> 1000 | > 1000 | > 1000 | 200 to 1000 | C=CC(=O)N1CCC(c2n[nH]c3ncnc(Nc4ccc(Oc5ccnc(C(=O)NC)c5)cc4F)c23)CC1 [Compound 184, 4-(4-((3-(1-acryloylpiperidin-4-yl)-1H-pyrazolo[3,4-d]pyrimidin-4-yl)amino)-3-fluorophenoxy)-N-methylpicolinamide] | –
200 to 1000 | 200 to 1000 | > 1000 | 50 to 200 | C=CC(=O)N1CCC(c2n[nH]c3ncnc(Nc4ccc(O[C@H]5CCCN(S(=O)(=O)c6cccs6)C5)cc4F)c23)CC1 [Compound 186, (S)-1-(4-(4-((2-fluoro-4-((1-(thiophen-2-ylsulfonyl)piperidin-3-yl)oxy)phenyl)amino)-1H-pyrazolo[3,4-d]pyrimidin-3-yl)piperidin-1-yl)prop-2-en-1-one] | –
200 to 1000 | 200 to 1000 | > 1000 | 200 to 1000 | C=CC(=O)N1CCC(c2n[nH]c3ncnc(Nc4ccc(O[C@H]5CCCN(S(=O)(=O)c6ccc(OC)nc6)C5)cc4F)c23)CC1 [Compound 187, (S)-1-(4-(4-((2-fluoro-4-((1-((6-methoxypyridin-3-yl)sulfonyl)piperidin-3-yl)oxy)phenyl)amino)-1H-pyrazolo[3,4-d]pyrimidin-3-yl)piperidin-1-yl)prop-2-en-1-one] | –
200 to 1000 | 50 to 200 | > 1000 | 50 to 200 | C=CC(=O)N1CCC(c2n[nH]c3ncnc(Nc4ccc(Oc5nc(-c6ccc(C(F)(F)F)nc6)cs5)cc4F)c23)CC1 [Compound 188, 1-(4-(4-((2-fluoro-4-((4-(6-(trifluoromethyl)pyridin-3-yl)thiazol-2-yl)oxy)phenyl)amino)-1H-pyrazolo[3,4-d]pyrimidin-3-yl)piperidin-1-yl)prop-2-en-1-one] | –
200 to 1000 | 50 to 200 | > 1000 | 50 to 200 | C=CC(=O)N1CCC(c2n[nH]c3ncnc(Nc4ccc(Oc5nc(-c6cnc(C)c(F)c6)cs5)cc4F)c23)CC1 [Compound 190, 1-[4-[4-[2-fluoro-4-[4-(5-fluoro-6-methyl-3-pyridyl)thiazol-2-yl]oxy-anilino]-1H-pyrazolo[3,4-d]pyrimidin-3-yl]-1-piperidyl]prop-2-en-1-one] | –
200 to 1000 | 200 to 1000 | > 1000 | 200 to 1000 | C=CC(=O)N1CCC(c2n[nH]c3ncnc(Nc4ccc(Oc5nc(-c6ccnn6C)cs5)cc4F)c23)CC1 [Compound 191, 1-(4-(4-((2-fluoro-4-((4-(1-methyl-1H-pyrazol-5-yl)thiazol-2-yl)oxy)phenyl)amino)-1H-pyrazolo[3,4-d]pyrimidin-3-yl)piperidin-1-yl)prop-2-en-1-one] | –
< 50 | < 50 | > 1000 | 50 to 200 | C=CC(=O)N1CCC(c2n[nH]c3ncnc(Nc4ccc(OCc5nnsc5Cl)cc4F)c23)CC1 [Compound 195, 1-(4-(4-((4-((5-chloro-1,2,3-thiadiazol-4-yl)methoxy)-2-fluorophenyl)amino)-1H-pyrazolo[3,4-d]pyrimidin-3-yl)piperidin-1-yl)prop-2-en-1-one] | –
200 to 1000 | 50 to 200 | > 1000 | 50 to 200 | C=CC(=O)N1CCC(c2ccn3ncnc(Nc4ccc(Oc5ccnc(N6CC7C(C6)C7(F)F)c5)cc4F)c23)CC1 (stereo not drawn) [Compound 200, 1-(4-(4-((4-((2-(6,6-difluoro-3-azabicyclo[3.1.0]hexan-3-yl)pyridin-4-yl)oxy)-2-fluorophenyl)amino)pyrrolo[2,1-f][1,2,4]triazin-5-yl)piperidin-1-yl)prop-2-en-1-one] | –
> 1000 | 200 to 1000 | > 1000 | 50 to 200 | C=CC(=O)N1CCC(c2ccn3ncnc(Nc4ccc(Oc5ccnc(N6CC(C)(OC)C6)c5)cc4F)c23)CC1 [Compound 203, 1-(4-(4-((2-fluoro-4-((2-(3-methoxy-3-methylazetidin-1-yl)pyridin-4-yl)oxy)phenyl)amino)pyrrolo[2,1-f][1,2,4]triazin-5-yl)piperidin-1-yl)prop-2-en-1-one] | –

Structure (SMILES) | GI50 (HCC827 cells) [nM] | GI50 [1] [nM] | GI50 (A431 cells) [nM] | GI50 [2, 3] [nM] | GI50 [2] [nM]
C=CC(=O)N1CCC(c2n[nH]c3ncnc(Nc4ccc(Oc5ccnc(-c6csc(C)n6)c5)cc4F)c23)CC1 [Compound 171, 1-(4-(4-((2-fluoro-4-((2-(2-methylthiazol-4-yl)pyridin-4-yl)oxy)phenyl)amino)-1H-pyrazolo[3,4-d]pyrimidin-3-yl)piperidin-1-yl)prop-2-en-1-one] | 200 to 1000 | 50 to 200 | > 1000 | – | < 50
